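In this assay, cells in 96-well plates receive the compound at five concentrations for 48 hours. Endpoints are linearly interpolated between the surrounding concentrations. At the GI50, growth is halved.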 Activity calls are given as the source filed them. Rule as the data show it: active = GI50 up to about 1.1 µM and inactive = higher.
Legend:
Assay in all cases: NCI-60 cell line screen, 48 h
[1] = tested on: ACHN
[2] = tested on: OVCAR-5
[3] = tested on: KM12
[4] = tested on: CCRF-CEM
[5] = tested on: SW-620
[6] = tested on: IGROV-1
[7] = tested on: SF-268
[8] = tested on: U-251
[9] = tested on: NCI/ADR-RES
[10] = tested on: COLO 205
[11] = tested on: CAKI-1
[12] = tested on: BT-549
[13] = tested on: MOLT-4
[14] = tested on: SF-295
[15] = tested on: OVCAR-4
[16] = tested on: DU-145
[17] = tested on: MCF7
[18] = tested on: UACC-257
[19] = tested on: SK-MEL-2
[20] = tested on: Malme-3M

Measured: GI50

Cc1cc(C#N)c(Nc2ccccc2[N+](=O)[O-])s1
inactive: [1] 58.7 µM | [2] 14.2 µM | [3] 36.1 µM | [4] 39.3 µM | [5] 25.5 µM | [6] 13.8 µM | [7] 51.5 µM | [8] 20.3 µM | [9] 17.4 µM | [10] 29.6 µM | [11] 77.8 µM | [12] 19.4 µM | [13] 55.7 µM | [14] 24.8 µM | [15] 89.3 µM | [16] 17.7 µM | [17] 32.5 µM | [18] 68.5 µM

O=[N+]([O-])c1ccc(CSc2nncc3[nH]cnc23)cc1
inactive: [1] 77.4 µM | [2] > 100 µM | [3] > 100 µM | [4] > 100 µM | [5] > 100 µM | [6] > 100 µM | [8] > 100 µM | [9] > 100 µM | [10] > 100 µM | [11] > 100 µM | [12] 85.3 µM | [13] > 100 µM | [14] 65.2 µM | [19] 83.6 µM | [15] > 100 µM | [17] > 100 µM | [18] > 100 µM | [20] 66.8 µM

CCCCCCc1ccc(CCCCCCCC(=O)O)o1
inactive: [1] 62.4 µM | [2] > 100 µM | [3] 70.8 µM | [4] 48.5 µM | [5] > 100 µM | [6] > 100 µM | [9] > 100 µM | [10] > 100 µM | [11] > 100 µM | [12] > 100 µM | [13] 16.4 µM | [14] 55.5 µM | [19] > 100 µM | [15] > 100 µM | [16] > 100 µM | [17] 44.8 µM | [18] > 100 µM

Nc1ccc(C2SCC(=O)N2NS(=O)(=O)c2cccc(C(=O)O)c2)cc1 (centres undefined)
inactive: [1] > 100 µM | [2] > 100 µM | [3] > 100 µM | [4] 63.8 µM | [5] > 100 µM | [6] > 100 µM | [7] > 100 µM | [8] > 100 µM | [10] > 100 µM | [11] > 100 µM | [12] > 100 µM | [13] > 100 µM | [14] > 100 µM | [19] > 100 µM | [16] > 100 µM | [17] > 100 µM | [18] > 100 µM | [20] 18.1 µM

CCCCc1c(OC)cc(O)c2c1C(=O)c1[nH]c(C(=O)O)c(O)c(=O)c1C2=O
inactive: [1] 2.27 µM | [2] 4.9 µM | [3] 29.4 µM | [4] 42.1 µM | [5] 83 µM | [6] 8.43 µM | [7] 1.95 µM | [8] 2.95 µM | [9] 4.18 µM | [10] 22 µM | [11] 13.2 µM | [12] 4.47 µM | [13] 19.8 µM | [14] 22.8 µM | [19] 1.69 µM | [15] 18.3 µM | [16] 63.1 µM | [17] 21.1 µM | [18] 10.4 µM

C=C(C)[C@@H]1CCC2=C(CC[C@]3(C)[C@@H]([C@@H](CCC=C(C)C)C(=O)O)[C@H](O)C[C@@]23C)[C@@]1(C)CCC(=O)O [PORICOIC ACID G]
inactive: [1] 75.2 µM | [2] 45.4 µM | [3] 47.4 µM | [4] 63.2 µM | [5] > 100 µM | [6] 42.6 µM | [7] 94.8 µM | [8] 22.4 µM | [9] > 100 µM | [10] 52.8 µM | [11] 83.6 µM | [12] 71.9 µM | [13] > 100 µM | [14] 50.4 µM | [19] 70.3 µM | [15] > 100 µM | [16] > 100 µM | [18] > 100 µM | [20] > 100 µM

Cc1cc2c(cc1C)[n+]([O-])c(NCCCN(C)C)c(C#N)[n+]2[O-]
inactive: [1] > 100 µM | [2] > 100 µM | [3] > 100 µM | [4] 57.3 µM | [5] > 100 µM | [6] 35.5 µM | [7] > 100 µM | [8] > 100 µM | [9] 85.1 µM | [11] 72.1 µM | [12] 79.1 µM | [13] 22.7 µM | [14] 42 µM | [19] > 100 µM | [15] > 100 µM | [17] > 100 µM | [18] > 100 µM | [20] 95.1 µM

CC(SC(=S)N(C)C)C(=O)Nc1nnc(-c2ccc(Cl)cc2)o1 (centres undefined)
inactive: [1] 36 µM | [2] 56.4 µM | [5] 34.7 µM | [6] 30.2 µM | [7] 29 µM | [8] 31 µM | [9] 14.6 µM | [10] 33.3 µM | [12] 89.1 µM | [13] 3.24 µM | [19] 30.8 µM | [15] 44.7 µM | [16] 59.8 µM | [17] 26.7 µM | [18] 65.9 µM | [20] 90.2 µM

CCSC1=N/C(=C\c2ccco2)C(NN)=N1
inactive: [1] > 50 µM | [2] > 50 µM | [3] > 50 µM | [4] > 50 µM | [5] > 50 µM | [6] > 50 µM | [7] > 50 µM | [8] > 50 µM | [9] > 50 µM | [10] > 50 µM | [11] > 50 µM | [12] > 50 µM | [13] > 50 µM | [14] > 50 µM | [19] > 50 µM | [16] > 50 µM | [18] > 50 µM | [20] > 50 µM

NC(=O)NC(=O)c1cccc(CNc2ccc(C(=O)N[C@@H](CCC(=O)O)C(=O)O)cc2)n1
inactive: [1] > 100 µM | [2] > 100 µM | [3] > 100 µM | [5] > 100 µM | [6] > 100 µM | [7] > 100 µM | [8] > 100 µM | [9] > 100 µM | [10] > 100 µM | [11] > 100 µM | [12] > 100 µM | [13] > 100 µM | [14] > 100 µM | [19] > 100 µM | [15] > 100 µM | [16] > 100 µM | [17] > 100 µM | [18] > 100 µM

O=C(/N=N/c1ccccc1Cl)NNc1ccccc1Cl
inactive: [1] 28.1 µM | [2] 43.2 µM | [4] 22.2 µM | [5] 40.7 µM | [6] 20.4 µM | [7] 60.5 µM | [8] 41.6 µM | [11] 36.7 µM | [12] > 10 µM | [13] 29.3 µM | [19] 32 µM | [15] 16.2 µM | [16] 43.2 µM | [18] > 100 µM | [20] 67 µM
